Assay results published in patent US4931447A, “Cycloalkylamides of (8β)-1-alkyl-6-(substituted) ergolines” (Eli Lilly and Company, priority 1989, dated 1990).

Test system: Male Rats
Assay: Copulatory performance of male rats, subcutaneous administration (Tables III, IV)
Type: in vivo, rat (male Sprague-Dawley)
Conditions: for Postejaculatory Latency / Ejaculatory Latency: 30 min before test; for Copulatory Rate: number of mounts per minute
Procedure: Adult male rats of the Sprague-Dawley strain were used in these studies. The sexual behavior evaluations were conducted at 2-week intervals beginning at 6 months of age and ending at 12 months of age. During the initial screening process, the male rats of various levels of sexual performance were selected for compound testing. […] Prior to treatment with a drug solution, each male rat was required to have at least two consecutive vehicle tests with similar sexual performance. Following each compound testing, additional vehicle tests were performed.
The mating tests were performed during the dark phase of the lighting cycle using red light illumination. Each behavioral test was initiated with the introduction of a receptive female rat into the arena and was terminated either 30 minutes later or immediately following the first postejaculatory mount. The indiees of mating performance that were evaluated for the rats capable of ejaculation included mount latency (the time interval from the introduction of the female rat to the first mount); intromission latency (the time interval from the introduction of the female rat to the first intromission); ejaculatory latency (the time interval from intromission to ejaculation); postejaculatory interval (the time from ejaculation to the next mount); mount frequency (the total number of mounts with or without intromission prior to ejaculation); intromission frequency (the number of mounts with intromission prior to ejaculation); intromission efficiency (the intromission frequency divided by the mount frequency); copulatory rate (the number of mounts per minute); copulatory frequency (the number of mounts prior to ejaculation); and copulatory efficiency (the number of mounts with intromission divided by the total number of mounts).
Each male rat was given a solution containing either the vehicle alone in water or the compound of Example 1, (8β)-N-cyclohexyl-1-isopropyl-6-methylergoline-8-carboxamide, in the same vehicle. Vehicle was made of 1 mM (millimolar) acetic acid and 1 mM ascorbic acid.
The results of these studies are set forth below in Tables II-VII. In the Tables "N" is the number of animals used to generate the data, the average of which is provided. The specific description of the test performed is set forth in the heading of the Tables.
Control values were obtained from the same rats 2 weeks earlier following
All injections were made 30 minutes prior to testing

CC(C)n1cc2c3c(cccc31)[C@H]1C[C@@H](C(=O)NC3CCCCC3)CN(C)[C@@H]1C2 [Example 1, (8β)-N-Cyclohexyl-1-isopropyl-6-methylergoline-8-carboxamide]
Postejaculatory Latency (0.01 mcg/kg s.c., N = 14, control 366.9 ± 15.6): 366.8 ± 19.8 s | Ejaculatory Latency (0.01 mcg/kg s.c., N = 14, control 602.6 ± 47.4): 530.4 ± 64.6 s | Copulatory Efficiency (0.01 mcg/kg s.c., N = 14, control 0.59 ± 0.05): 0.56 ± 0.03 | Mount Frequency (0.01 mcg/kg s.c., N = 14, control 20.1 ± 2.4): 21.4 ± 2.0 | Copulatory Rate (0.01 mcg/kg s.c., N = 14, control 2.1 ± 0.2): 2.4 ± 0.3 | Postejaculatory Latency (0.10 mcg/kg s.c., N = 15, control 367.1 ± 18.7): 355.9 ± 13.2 s | Ejaculatory Latency (0.10 mcg/kg s.c., N = 15, control 747.9 ± 61.8, significant (*)): 532.9 ± 58.0 s | Copulatory Efficiency (0.10 mcg/kg s.c., N = 15, control 0.38 ± 0.03, significant (*)): 0.54 ± 0.04 | Mount Frequency (0.10 mcg/kg s.c., N = 15, control 25.0 ± 2.3): 22.9 ± 2.6 | Copulatory Rate (0.10 mcg/kg s.c., N = 15, control 2.0 ± 0.2, significant (*)): 2.7 ± 0.3 | Postejaculatory Latency (1.0 mcg/kg s.c., N = 11, control 371.2 ± 19.8): 357.3 ± 9.5 s | Ejaculatory Latency (1.0 mcg/kg s.c., N = 11, control 749.5 ± 59.1, significant (*)): 584.8 ± 89.4 s | Copulatory Efficiency (1.00 mcg/kg s.c., N = 11, control 0.53 ± 0.04, significant (*)): 0.67 ± 0.03 | Mount Frequency (1.00 mcg/kg s.c., N = 11, control 23.1 ± 2.4): 21.4 ± 1.7 | Copulatory Rate (1.00 mcg/kg s.c., N = 11, control 1.9 ± 0.2, significant (*)): 2.4 ± 0.2 | Postejaculatory Latency (10.0 mcg/kg s.c., N = 11, control 368.3 ± 23.0): 333.9 ± 10.9 s | Ejaculatory Latency (10.0 mcg/kg s.c., N = 11, control 850.4 ± 99.2, significant (*)): 454.1 ± 78.4 s | Copulatory Efficiency (10.0 mcg/kg s.c., N = 11, control 0.49 ± 0.05, significant (*)): 0.57 ± 0.04 | Mount Frequency (10.0 mcg/kg s.c., N = 11, control 23.2 ± 2.1): 18.5 ± 2.4 | Copulatory Rate (10.0 mcg/kg s.c., N = 11, control 1.7 ± 0.2, significant (*)): 2.6 ± 0.4 | Postejaculatory Latency (100.0 mcg/kg s.c., N = 16, control 373.3 ± 22.8): 325.6 ± 16.0 s | Ejaculatory Latency (100.0 mcg/kg s.c., N = 16, control 731.8 ± 44.5, significant (*)): 463.6 ± 46.6 s | Copulatory Efficiency (100.0 mcg/kg s.c., N = 16, control 0.49 ± 0.03, significant (*)): 0.59 ± 0.04 | Mount Frequency (100.0 mcg/kg s.c., N = 16, control 24.8 ± 2.3): 21.3 ± 1.4 | Copulatory Rate (100.0 mcg/kg s.c., N = 16, control 2.1 ± 0.2, significant (*)): 2.9 ± 0.3
